In the supplement of paper PMC10307832:

compound: N#CC1(c2ccc(NC(=O)c3cccnc3NCc3ccncc3)cc2)CCCC1 [Apatinib] + CS(=O)(=O)N1CCN(Cc2cc3nc(-c4cccc5[nH]ncc45)nc(N4CCOCC4)c3s2)CC1 [Pictilisib] (partner 1 µM); experiment: relative viability (nuclei count vs DMSO), 5 days (fraction); higher = more cells survive; conditions: first compound 0.08 µM
Method in brief: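 For relative viability, nuclei counts in treated wells were divided by those in vehicle wells. Lung cancer cell lines had been pin-tool dosed in 1536-well plates the day after seeding and cultured for 5 days, then fixed and stained in one step (final 0.05% Triton X-100, 1% formaldehyde, 1 ug/ml Hoechst) and imaged at 4×. Doses were one drug alone or a fixed anchor-drug dose plus five library-drug doses (not always all listed) in √10 steps, and values are duplicate-plate medians.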

Cell Line	relative viability
LCLC-97TM1	0.221
LCLC-103H	0.651
LK-2	0.532
LOU-NH91	0.516
LU99A	0.333
LXF-289	0.838
NCI-H23	0.547
NCI-H322M	0.513
NCI-H358	0.282
NCI-H441	0.583
NCI-H596	0.419
NCI-H647	0.492
NCI-H650	0.963
NCI-H727	0.328
NCI-H838	0.533
NCI-H1355	0.499
NCI-H1395	0.594

Cell Line	relative viability
NCI-H1437	0.468
NCI-H1651	0.665
NCI-H1666	0.408
NCI-H1734	0.478
NCI-H1755	0.443
NCI-H1792	0.309
NCI-H1793	0.277
NCI-H1915	1.12
NCI-H1944	0.344
NCI-H1975	0.305
NCI-H1993	0.874
NCI-H2085	0.464
NCI-H2087	0.864
NCI-H2126	0.52
NCI-H2170	0.329
NCI-H2347	0.51

same assay, conditions: first compound 0.253 µM

Cell Line	relative viability
LCLC-97TM1	0.147
LCLC-103H	0.639
LK-2	0.511
LOU-NH91	0.56
LU99A	0.327
LXF-289	0.828
NCI-H23	0.522
NCI-H322M	0.488
NCI-H358	0.241
NCI-H441	0.566
NCI-H596	0.402
NCI-H647	0.5
NCI-H650	0.878
NCI-H727	0.306
NCI-H838	0.462
NCI-H1355	0.42
NCI-H1395	0.552

Cell Line	relative viability
NCI-H1437	0.441
NCI-H1651	0.565
NCI-H1666	0.413
NCI-H1734	0.491
NCI-H1755	0.416
NCI-H1792	0.278
NCI-H1793	0.23
NCI-H1915	0.91
NCI-H1944	0.345
NCI-H1975	0.335
NCI-H1993	0.828
NCI-H2085	0.457
NCI-H2087	0.815
NCI-H2126	0.398
NCI-H2170	0.301
NCI-H2347	0.673

same assay, conditions: first compound 0.8 µM

Cell Line	relative viability
LCLC-97TM1	0.216
LCLC-103H	0.554
LK-2	0.484
LOU-NH91	0.499
LU99A	0.332
LXF-289	0.76
NCI-H23	0.458
NCI-H322M	0.523
NCI-H358	0.283
NCI-H441	0.51
NCI-H596	0.353
NCI-H647	0.419
NCI-H650	0.847
NCI-H727	0.358
NCI-H838	0.41
NCI-H1355	0.428
NCI-H1395	0.64

Cell Line	relative viability
NCI-H1437	0.377
NCI-H1651	0.494
NCI-H1666	0.456
NCI-H1734	0.466
NCI-H1755	0.447
NCI-H1792	0.334
NCI-H1793	0.391
NCI-H1915	0.943
NCI-H1944	0.306
NCI-H1975	0.304
NCI-H1993	0.803
NCI-H2085	0.475
NCI-H2087	0.826
NCI-H2126	0.473
NCI-H2170	0.304
NCI-H2347	0.748

same assay, conditions: first compound 2.53 µM

Cell Line	relative viability
LCLC-97TM1	0.316
LCLC-103H	0.545
LK-2	0.326
LOU-NH91	0.466
LU99A	0.302
LXF-289	0.714
NCI-H23	0.426
NCI-H322M	0.627
NCI-H358	0.298
NCI-H441	0.408
NCI-H596	0.32
NCI-H647	0.349
NCI-H650	0.678
NCI-H727	0.364
NCI-H838	0.469
NCI-H1355	0.382
NCI-H1395	0.524

Cell Line	relative viability
NCI-H1437	0.392
NCI-H1651	0.614
NCI-H1666	0.418
NCI-H1734	0.469
NCI-H1755	0.461
NCI-H1792	0.191
NCI-H1793	0.256
NCI-H1915	0.878
NCI-H1944	0.282
NCI-H1975	0.28
NCI-H1993	0.731
NCI-H2085	0.449
NCI-H2087	0.749
NCI-H2126	0.505
NCI-H2170	0.306
NCI-H2347	0.552

same assay, conditions: first compound 8 µM

Cell Line	relative viability
LCLC-97TM1	0.143
LCLC-103H	0.546
LK-2	0.428
LOU-NH91	0.522
LU99A	0.295
LXF-289	0.72
NCI-H23	0.492
NCI-H322M	0.528
NCI-H358	0.301
NCI-H441	0.32
NCI-H596	0.383
NCI-H647	0.395
NCI-H650	0.654
NCI-H727	0.367
NCI-H838	0.451
NCI-H1355	0.364

Cell Line	relative viability
NCI-H1395	0.555
NCI-H1437	0.284
NCI-H1651	0.476
NCI-H1666	0.54
NCI-H1734	0.416
NCI-H1755	0.376
NCI-H1792	0.243
NCI-H1793	0.342
NCI-H1915	0.752
NCI-H1944	0.303
NCI-H1975	0.322
NCI-H1993	0.817
NCI-H2085	0.499
NCI-H2087	0.779
NCI-H2126	0.479
